Values quoted from earlier work in patent US20080139661A1, “Fragranted moistening fluids that destroy and/or inhibit the growth of biological organisms while minimizing a tacky build up” (Pitney Bowes Incorporated, priority 2006, published 2008).

Details: at 20° C., typical value

## O [Water]
  surface tension: around 72 dynes/cm
